{
  "source": "paper PMC12564302",
  "about": "“Discovery of N-Hydroxypyridinedione-Based Inhibitors of HBV RNase H: Design, Synthesis, and Extended SAR Studies” (International Journal of Molecular Sciences, 2025)",
  "key": {"[1]": {"assay": "Parallel artificial membrane permeability assay", "type": "in vitro ADME", "conditions": "PAMPA, pH 7.4, PAMPA", "description": "The evaluation of apparent passive permeability (Papp) at pH 7.4 was performed using a donor/acceptor cassette (Innovative Laboratory Products, Phoenix, AZ, USA and Sigma Aldrich, Burlington, MA, USA), which simulates the apical and basolateral sides of the small intestine epithelium, as previously described. An artificial membrane made of 1% w/v lecithin/dodecane was applied to the poly (vinylidene fluoride) (PVDF) membrane filter and allowed to dry. Following drying, compounds (200 µM) were diluted in buffer at pH 7.4 and added to the donor side of the cassette. The same pH buffer was added on the acceptor side of the cassette, after which it was assembled and incubated at room temperature with shaking at 250 rpm for 2 h, before reading the absorbance of 100 µL from the acceptor well on a plate reader between 230 and 700 nm. The Papp (cm/s) values for compounds were determined by normalizing to the compound absorbance at equilibrium using the peak absorbance point for each compound, buffer volume, incubation time, and membrane porosity. Two or more replicate assays were conducted on different days."}, "[2]": {"assay": "MTS cytotoxicity assay", "type": "cell-based", "conditions": "human, HepDES19 cells, pH 7.4", "description": "(§1) HepDES19 cells are a HepG2 cell-line derivative that has been stably transfected with an HBV genotype D genome containing a tetracycline repressible promoter. HepDES19 cells were maintained on collagen-coated plates in Dulbecco’s modified Eagle’s medium (DMEM/F12) (Cytiva Life Sciences, Marlborough, MA, USA) supplemented with 10% fetal bovine serum (FBS), streptomycin (100 µg/mL), and penicillin (100 IU/mL), and incubated at 37 °C with 5% CO2 and saturating humidity. Cells were cultured with 1 µg/mL tetracycline to inhibit the expression of the stably integrated HBV genome, and HBV replication was activated upon removal of tetracycline from the culture medium.\nCell viability was assessed using the CellTiter 96^TM Aqueous Non-Radioactive Cell Proliferation assay (MTS) (Promega, Madison, WI, USA) as described previously. HepDES19 cells were seeded in 96 well plates at 1 × 10^4 cells/well for 48 h. Cells were then incubated with serial diluted compound, with a final concentration of 1% DMSO, for 72 h. Following compound incubation, background absorbance values were subtracted, and the data were converted into percent cell viability. The cytotoxic concentration 50% (CC50) values were calculated using GraphPad Prism’s four-parameter log (inhibitor) versus response algorithm, with the bottom value set to zero. Three or more replicate assays were performed on different days."}, "[3]": {"tested_on": "HBV RNase H carrying the P790L mutation", "assay": "Recombinant RNase H biochemical assay (FAM/IowaBlack RNA:DNA heteroduplex)", "conditions": "qualitative assay", "description": "HBV RNase H carrying the P790L mutation that is needed to stabilize the recombinant enzyme was purified from E. coli, and RNase H assays in which an RNA:DNA heteroduplex was incubated with the recombinant enzyme were performed. The RNA strand is FAM-labelled, and the DNA strand carries an IowaBlack quencher. Cleavage of the RNA strand releases the FAM moiety from quenching, causing an increase in fluorescence. Performance limitations with the enzyme limit this assay to just qualitative interpretation."}, "[4]": {"tested_on": "HBV replication in HepDES19 cells", "assay": "qPCR HBV replication inhibition assay", "type": "cell-based, HBV genotype D", "conditions": "72 h, (+) polarity DNA strand, pH 7.4, read-out: EC50", "description": "as §1\nHBV replication inhibition in HepDES19 cells was assessed using a strand-preferential quantitative PCR assay as previously described. HepDES19 cells were seeded in 96 well plates at 4 × 10^4 cells/well for 48 h followed by the addition of serial diluted compound with a final concentration of 1% DMSO for 72 h, after which cells were lysed, and qPCR was performed as described in Li et al.. Effective concentration 50% (EC50) values were calculated from data for the (+) polarity DNA strand data using GraphPad Prism version 10’s four-parameter log (inhibitor) versus response algorithm, with the bottom value set to zero. Three or more replicate assays were performed on different days."}, "[5]": {"assay": "Solubility limit assay", "type": "physicochemical", "conditions": "DMEM-F12 without phenol red with 10% FBS, pH 7.4, plasma or biological fluid, kinetic from dmso stock", "description": "Solubility limits of compounds were tested as previously reported in DMEM-F12 without phenol red (Gibco, Grand Island, NY, USA) but with the media supplemented with 10% FBS (pH 7.4) to mimic cell culture experiments. In a 384-well optically clear plate, compounds were serially diluted in pH 7.4 buffer (upper limit 200 µM, DMSO 1%) then read at 620 nm. Solubility limits were determined by plotting compound concentration (µM) against optical density (OD) and identifying an inflexion point. The inflexion point is defined by a substantial increase in OD brought on by increasing turbidity, and the compound concentration at this point is known as the solubility limit. Each compound had at least two replicate assays performed on different days."}},
  "note": "Read-outs that look alike come from different tables or passages of the source.",
  "data": [
    {"compound": "CC(=Nc1ccc(F)c(F)c1)c1c(C)cc(=O)n(O)c1O", "note": "[Compound 22, 5-(1-((3,4-difluorophenyl)imino)ethyl)-1,6-dihydroxy-4-methylpyridin-2(1H)-one]", "values": [
      {"measurement": "Papp at 2 h, 200 µM", "setting": "[1]; pH 7.4, 200 µM, 2 h, read-out: Papp", "value": 2.99, "unit": "×10⁻⁶ cm/s"},
      {"measurement": "Papp at 2 h, 200 µM", "setting": "[1]; pH 7.4, read-out: Papp Interpretation", "value": "> 1", "unit": "×10⁻⁶ cm/s"},
      {"measurement": "CC50 at 72 h", "setting": "[2]", "value": 100000, "unit": "nM"},
      {"measurement": "suppression of RNase H activity", "setting": "[3]; at 100 µM", "value": "~ 50%"},
      {"measurement": "suppression of RNase H activity (in words)", "setting": "[3]", "value": "dose-dependent suppression of RNase H activity"},
      {"measurement": "EC50", "setting": "[4]; HepDES19 cells", "value": "890 ± 400", "unit": "nM"},
      {"measurement": "EC50", "setting": "[4]; Hepatitis B virus, HepDES19, 72 h, pH 7.4, HepDES19 cells", "value": 900, "unit": "nM"},
      {"measurement": "solubility", "setting": "[5]; pH 7.4, DMEM-F12 with 10% FBS, 1% DMSO, upper limit 200 µM, read-out: Solubility Limit", "value": "> 200", "unit": "µM"},
      {"measurement": "solubility", "setting": "[5]; pH 7.4, read-out: Solubility Limit Interpretation", "value": "> 100", "unit": "µM"}
    ]}
  ]
}
